These results are taken from US5977442A, “Salicylic acid induced map kinase and its use for enhanced disease resistance in plants” (priority 1997, dated 1999).

pIC50: −log10 of the molar value.

The test system of data set [1] is p48 SIP kinase. Description: In-gel kinase activity assay (MBP substrate) in extracts of treated tobacco suspension cells: activation of p48 SIP kinase. The class given is cell-based, Nicotiana tabacum cv Xanthi nc. The following applies: tobacco suspension cells; for activation of 48 kDa (p48 SIP) kinase: 250 μM, MBP substrate; for duration of SIP kinase activation relative to SA: data not shown for analogues. Here is the method:
The cell suspension culture was derived from callus tissue originated from leaves of Nicotiana tabacum cv Xanthi nc and grown in MS medium supplemented with 1 mg/L α-naphthaleneacetic acid, 0.1 mg/L 2,4-dichlorophenoxyacetic acid, 0.1 mg/L benzyladenine, and 3% sucrose. Log phase cells were used three days after a 1:10 dilution. Treatment with H2 O2, SA and its analogues was performed in the original flasks in the dark to avoid any stresses associated with transfer. At various times, 10 mL cells (approximately 0.2 to 0.3 g fresh weight of cells) were harvested by filtration. The cells were quickly frozen in liquid nitrogen and stored at -80° C. until analysis.
Leaf discs were first ground to a fine powder in 1.5 ml microcentrifuge tubes using small plastic pestles. After adding 0.25 mL extraction buffer (100 mM Hepes, pH 7.5, 5 mM EDTA, 5 mM EGTA, 10 mM DTT, 10 mM Na3 VO4, 10 mM NaF, 50 mM β-glycerolphosphate, 1 mM phenylmethylsulfonyl fluoride, 5 μg/mL antipain, 5 μg/mL aprotinin, 5 μg/mL leupeptin, 10% glycerol, 7.5% polyvinylpolypyrrolidone), the mixture was sonicated for 15 seconds with a W-375 Sonicator (Heat System-Ultrasonics, Inc., N.Y.) fitted with a microprobe at setting 4 and 80% duty cycle. To prepare extracts from treated cells, cells were mixed with two volumes (w/v) of extraction buffer and were then sonicated twice for 15 seconds each in 1.5 mL microcentrifuge tube. After centrifugation at 13,000 rpm for 20 minutes, supernatants were transferred into clean tubes, quickly frozen in liquid nitrogen and stored at -80° C.
The in-gel kinase assay was performed as described previously (Zhang et al., 1993). Extracts containing 10 μg protein were electrophoresed on 10% SDS-polyacrylamide gels imbedded with either 1 mg/mL of casein, 1 mg/mL histone (Type III-SS, Sigma, MO), 1 mg/mL BSA, or 0.25 mg/mL of MBP in the separating gel as substrate for the kinase. After electrophoresis, SDS was removed by washing the gel with washing buffer (25 mM Tris, pH 7.5, 0.5 mM DTT, 0.1 mM Na3 VO4, 5 mM NaF, 0.5 mg/mL BSA, 0.1% Triton X-100 [v/v]). The buffer was changed three times, each for 30 minutes at room temperature. The kinases were allowed to renature in 25 mM Tris, pH 7.5, 1 mM DTT, 0.1 mM Na3 VO4, 5 mM NaF at 4° C. overnight with three changes of buffer. The gel was then incubated at room temperature in 30 mL reaction buffer (25 mM Tris, pH 7.5, 2 mM EGTA, 12 mM MgCl2, 1 mM DTT, 0.1 mM Na3 VO4) with 200 nM ATP plus 50 μCi γ-^32 P-ATP (3000 Ci/mmole) for 60 minutes. The reaction was stopped by transferring the gel into 5% TCA (w/v)/1% NaPPi (w/v). The unincorporated γ-^32 P-ATP was removed by washing in the same solution for at least 6 hours with 5 changes of buffer. The gel was dried onto 3 MM paper and exposed to Kodak XAR-5 film. Prestained size markers (Bio-Rad, CA) were used to calculate the size of the kinases. Quantitation of the relative kinase activities were done using a phosphoimager (Molecular Dynamics Inc., CA).

Data set [2] relates to PR gene expression and enhanced disease resistance. Particulars: Conrath et al., 1995; cited from earlier work.
The target of data set [3] is T1, p48 SIP kinase (Nicotiana tabacum, UniProt A0A1S3Z5Y0).
T1 construct: endogenous in cells; host or cells: SA-treated tobacco suspension culture cells (purified through the poly-L-lysine agarose step)
The data set is described as follows: In-solution kinase assay: effects of various reagents on p48 SIP kinase activity. The following applies: for effect on p48 SIP kinase activity: partially purified p48 SIP kinase; for activity at 5000 µM: 5 mM. It is filed as biochemical, tobacco. Here is the method:
(§1) Unless specifically indicated, assays were performed at room temperature for 20 minutes in a final volume of 15 μl containing 0.5 mg/mL of MBP, 50 μM of γ-^32 P-ATP (about 3000-6000 cpm/pmole), 25 mM Tris pH 7.5, 5 mM MgCl2, 1 mM EGTA, 1 mM DTT, and enzyme. The reaction was terminated by the addition of equal volume of 150 mM H3 PO4. Twenty μL of the mixture was spotted onto an 8-well phosphocellulose filter strip (Pierce, Ill.). After washing with 150 mM H3 PO4 extensively, the phospho-protein was eluted with 0.4 mL of 1 N NaOH, and the radioactivity was determined by liquid scintillation counting. Total cpm in the reaction mixture was also determined in order to calculate the specific activity of the enzyme preparation. One unit of p48 SIP kinase was defined as the amount of enzyme that will catalyze the transfer of 1 pmole of phosphate from ATP to MBP in 1 minute.
^a For each reagent, a dose response curve was measured under standar
assay conditions. About 0.5 unit of enzyme was used for each reaction.
Control was the enzyme activity in the absence of reagent.

The target in data set [4] is T1, p48 SIP kinase. The data set is described as follows: Kinetic properties, substrates, cofactors and pH dependence of p48 SIP kinase (in-solution kinase assay). The class given is biochemical, tobacco. The following applies: for use as phospho-donor / phosphate donor: data not shown; for metal ion requirement of the enzyme: FIG. 10B. How it is done: FIGS. 10A and 10B show a pair of graphs illustrating the effect of pH (FIG. 10A), Mg^2+ and Mn^2+ (FIG. 10B) on p48 SIP kinase activity. Approximately 0.5 unit of partially purified enzyme was used in each test. Buffers used for measuring the effect of pH were 50 mM 2-[N-morpholino]ethanesulfonic acid (Mes, pH 5.0-8.0, .circle-solid.), 50 mM Tris (pH 6.0-9.5, .tangle-solidup.), and 50 mM 3-[cyclohexylamino]-1-propanesulfonic acid (Caps, pH 9.0-12.0, .box-solid.). For testing the effects of Mg^2+ (.circle-solid.), and Mn^2+ (.tangle-solidup.), buffer B from the last purification step was first exchanged to Mg^2+ -free buffer using a desalting column. Mg^2+ was not added in reactions for testing the effect of Mn^2+.
FIG. 11 is a graph depicting the protein substrate preference of the p48 SIP kinase. About 0.5 unit of partially purified enzyme was used in each reaction. The assay conditions were as described below in Example 1, except various concentrations of MBP (.circle-solid.), histone (.tangle-solidup.), and casein (.box-solid.) were used.
as §1

Data set [5] addresses p48 SIP kinase (salicylic acid-induced protein kinase), activated form from SA- or H2O2-treated tobacco cells, in extracts or purified (tobacco (Nicotiana tabacum cv Xanthi nc)).
The mark [6] stands for this setting: 20 min, pH 7.5, read-out: Relative Activity.

As usually defined, the pIC50 is the IC50 on a negative log10 scale, so that one unit is a factor of ten. Broadly, the Vmax is the top rate of the reaction or transport when substrate is in excess. In general, Km refers to the concentration of substrate that gives half-maximal velocity.

T1 sequence (A0A1S3Z5Y0 whole entry): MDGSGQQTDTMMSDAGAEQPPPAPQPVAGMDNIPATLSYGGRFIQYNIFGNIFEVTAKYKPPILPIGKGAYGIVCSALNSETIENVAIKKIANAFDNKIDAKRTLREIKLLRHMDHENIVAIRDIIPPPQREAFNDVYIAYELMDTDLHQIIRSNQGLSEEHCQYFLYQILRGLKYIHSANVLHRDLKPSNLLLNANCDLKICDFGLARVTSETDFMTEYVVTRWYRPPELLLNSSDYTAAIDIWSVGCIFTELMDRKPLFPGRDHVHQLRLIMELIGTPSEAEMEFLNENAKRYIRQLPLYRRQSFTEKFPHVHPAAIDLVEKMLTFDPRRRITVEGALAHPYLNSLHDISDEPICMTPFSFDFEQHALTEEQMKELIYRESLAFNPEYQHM

Consider `O=C(O)c1cccc(O)c1` [3-HBA, 3-hydroxybenzoic acid], for which the “activation of 48 kDa (p48 SIP) kinase” value in the data set on p48 SIP kinase [1] is “poor activators”.
For the molecule `O=C(O)c1ccc(Cl)cc1O` [4-CSA, 4-chloroSA], in the data set on p48 SIP kinase [1], the “activation of 48 kDa (p48 SIP) kinase” value was “activated the SIP kinase to similar extents as SA” and the “duration of SIP kinase activation relative to SA” value is recorded as “more sustained activation of the SIP kinase than SA”. Also, the “induction of PR gene expression and enhanced disease resistance” value in data set [2] is “induce PR gene expression and enhanced disease resistance in tobacco”.
For the molecule `O=C(O)c1ccc(O)cc1` [4-HBA], the “activation of 48 kDa (p48 SIP) kinase” value in the data set on p48 SIP kinase [1] is reported as “poor activators”.
`O=C(O)c1cc(Cl)ccc1O` [5-CSA]: in the data set on p48 SIP kinase [1], the “activation of 48 kDa (p48 SIP) kinase” value is given as “activated the SIP kinase to similar extents as SA” and the “duration of SIP kinase activation relative to SA” value was “more sustained activation of the SIP kinase than SA”. The “induction of PR gene expression and enhanced disease resistance” value in data set [2] is “induce PR gene expression and enhanced disease resistance in tobacco”.
With `[Ca+2]` [Ca^2+], the “Relative Activity” value was 100 % of control at p48 SIP kinase [3] (0.5 mM, 20 min) and 50 % of control on p48 SIP kinase [3] (5.0 mM, 20 min). The “effect on p48 SIP kinase activity” value at p48 SIP kinase [3] is recorded as “inhibited the enzyme”. In addition, the “calcium requirement for activity” value on p48 SIP kinase [4] is “lacks a calcium requirement for activity”.
For the molecule `OC(CS)C(O)CS` (centres unmarked) [DTT], the activity at 5000 µM on p48 SIP kinase [3] (setting [6]) is 100%.
With `CN(C)C(=O)/N=N/C(=O)N(C)C` [Diamide], on p48 SIP kinase [3] (setting [6]), the activity at 5000 µM worked out at 50%.
With `O=C(O)CN(CCOCCOCCN(CC(=O)O)CC(=O)O)CC(=O)O` [EGTA], the activity at 10000 µM at p48 SIP kinase [3] (20 min, pH 7.5, 10 mM, read-out: Relative Activity) is 100%. Moreover, on p48 SIP kinase [3], the “effect on p48 SIP kinase activity” value is listed as “no effect on its activity”.
In the case of `O=c1c(-c2ccc(O)cc2)coc2cc(O)cc(O)c12` [Genistein, genistein], the activity at 20 µM on p48 SIP kinase [3] (20 min, pH 7.5, 20 μM, read-out: Relative Activity) was 100%. Also, at p48 SIP kinase [3], the “effect on p48 SIP kinase activity” value is “no effect on its activity”.
At p48 SIP kinase [3], `COC(=O)[C@@]1(O)C[C@H]2O[C@]1(C)n1c3ccccc3c3c4c(c5c6ccccc6n2c5c31)C(=O)NC4` [K-252a] had a pIC50 of 7.92. Also, the activity at 0.012 µM on p48 SIP kinase [3] (setting [6]) stood at 50%.
With `Nc1ncnc2c1ncn2[C@@H]1O[C@H](COP(=O)(O)OP(=O)([O-])OP(=O)([O-])O)[C@@H](O)[C@H]1O.[Mg+2]` [Mg^2+ -ATP], on p48 SIP kinase [4], the Vmax turned out to be 0.39 µmol/min/mg. Besides, the Km on p48 SIP kinase [4] (Mg^2+ -ATP) was found to be 24 µM.
For `Nc1nc2c(ncn2[C@@H]2O[C@H](COP(=O)(O)OP(=O)(O)OP(=O)(O)O)[C@@H](O)[C@H]2O)c(=O)[nH]1` [Mg^2+ -GTP], the “use as phospho-donor / phosphate donor” value is recorded as “could not use” on p48 SIP kinase [4] and “unable to use GTP as a phosphate donor” on p48 SIP kinase [4] (listed as GTP).
Turning to `[Mg+2]` [Mg^2+], the “metal ion requirement of the enzyme” value on p48 SIP kinase [4] was “absolute requirement”. The “MgCl2 concentration up to which kinase activity was strongly stimulated” value at p48 SIP kinase [4] (total concentration) is at most 2 mM.
Consider `[Mn+2]` [Mn^2+], for which the “metal ion requirement of the enzyme” value on p48 SIP kinase [4] is on record as “could not substitute for Mg^2+”.
Turning to `[Na+]` [Na^+], the “Relative Activity” value on p48 SIP kinase [3] (100 mM, 20 min) is on record as 100 % of control; on p48 SIP kinase [3] (750 mM, 20 min), 50 % of control.
In the case of `NCCCCNCCCN` [Spermidine, spermidine], the activity at 1000 µM at p48 SIP kinase [3] (20 min, pH 7.5, 1 mM, read-out: Relative Activity) was 100%. In addition, the “effect on p48 SIP kinase activity” value at p48 SIP kinase [3] is “showed no effect at the concentrations tested”.
Take `CN[C@@H]1C[C@H]2O[C@@](C)([C@@H]1OC)n1c3ccccc3c3c4c(c5c6ccccc6n2c5c31)C(=O)NC4` [Staurosporine, staurosporine]: the pIC50 against p48 SIP kinase [3] is 7.22. Moreover, at p48 SIP kinase [3] (setting [6]), the activity at 0.06 µM was 50%.
Consider `[Zn+2]` [Zn^2+], for which the “Relative Activity” value on p48 SIP kinase [3] (0.10 mM, 20 min) is given as 100 % of control; at p48 SIP kinase [3] (0.25 mM, 20 min), 50 % of control. For the same molecule, the “effect on p48 SIP kinase activity” value on p48 SIP kinase [3] is reported as “inhibited the enzyme”.
Regarding Heparin, the “Relative Activity” value at p48 SIP kinase [3] (50 μg mL^-1, 20 min) is reported as 50 % of control. Besides, on p48 SIP kinase [3], the “effect on p48 SIP kinase activity” value is listed as “showed inhibitory effects”.
Regarding Poly-L-glutamate [listing 1 of 2 here], the “Relative Activity” value at p48 SIP kinase [3] (500 μg mL^-1, 20 min) is 50 % of control. Moreover, at p48 SIP kinase [3], the “effect on p48 SIP kinase activity” value is “showed inhibitory effects”.
For the molecule Poly-L-glutamate [listing 2 of 2 here], the Relative Activity % of control (% of control at 500 µg mL^-1) in data set [5] turned out to be 50.
Take Poly-L-glutamine [listing 1 of 2 here]: the “Relative Activity” value on p48 SIP kinase [3] (500 μg mL^-1, 20 min) is given as 100 % of control. The “effect on p48 SIP kinase activity” value on p48 SIP kinase [3] is “showed no effect at the concentrations tested”.
Poly-L-glutamine [listing 2 of 2 here]: in data set [5], the Relative Activity % of control (% of control at 500 µg mL^-1) amounted to 100.
As for Poly-L-lysine [listing 1 of 2 here], the “Relative Activity” value on p48 SIP kinase [3] (25 μg mL^-1, 20 min) is reported as 50 % of control. Besides, the “effect on p48 SIP kinase activity” value on p48 SIP kinase [3] is “showed inhibitory effects”.
Poly-L-lysine [listing 2 of 2 here] displayed a Relative Activity % of control (% of control at 25 µg mL^-1) in data set [5] of 50.
Turning to Protamine, in the data set with p48 SIP kinase [3] (25 μg mL^-1), the “Relative Activity” value is 50 % of control. In addition, the “effect on p48 SIP kinase activity” value with p48 SIP kinase [3] was “showed inhibitory effects”.
Regarding protamine, in data set [5], the Relative Activity % of control (% of control at 25 µg mL^-1) was 50.
